Measurements published in patent publication US12037344B2, “NLRP3 modulators” (INNATE TUMOR IMMUNITY, INC., priority 2018, dated 2024).
Where two headings read alike, the source gives them in different places.

Columns and labels:
THP-1 cells = assay: Measurement of IL-1β production, hTRF protocol (second alternative procedure), THP-1 cells; assay type: cell-based, human
In short: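 Compounds, dilution series starting at a final 10 μM, were incubated 2 hours at 37° C with PMA-differentiated THP-1 cells (50 ng/ml overnight; 50,000 cells/well, 2% FBS RPMI). Released IL-1β quantified in supernatant by hTRF kit with 1:40 antibody dilution, 4° C overnight, 665/615 nm ratio.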

TLR8 = molecular target: T1, TLR8 (Homo sapiens, UniProt Q9NR97); assay: In vitro human TLR8 binding reporter assay (HEK-Blue, NF-kB/AP1-inducible SEAP); assay type: cell-based; settings: read-out: TLR8 Agonist EC50
T1 construct: human HEK-Blue cells co-expressing a TLR7 or TLR8 gene
T1 sequence (Q9NR97 27-1041): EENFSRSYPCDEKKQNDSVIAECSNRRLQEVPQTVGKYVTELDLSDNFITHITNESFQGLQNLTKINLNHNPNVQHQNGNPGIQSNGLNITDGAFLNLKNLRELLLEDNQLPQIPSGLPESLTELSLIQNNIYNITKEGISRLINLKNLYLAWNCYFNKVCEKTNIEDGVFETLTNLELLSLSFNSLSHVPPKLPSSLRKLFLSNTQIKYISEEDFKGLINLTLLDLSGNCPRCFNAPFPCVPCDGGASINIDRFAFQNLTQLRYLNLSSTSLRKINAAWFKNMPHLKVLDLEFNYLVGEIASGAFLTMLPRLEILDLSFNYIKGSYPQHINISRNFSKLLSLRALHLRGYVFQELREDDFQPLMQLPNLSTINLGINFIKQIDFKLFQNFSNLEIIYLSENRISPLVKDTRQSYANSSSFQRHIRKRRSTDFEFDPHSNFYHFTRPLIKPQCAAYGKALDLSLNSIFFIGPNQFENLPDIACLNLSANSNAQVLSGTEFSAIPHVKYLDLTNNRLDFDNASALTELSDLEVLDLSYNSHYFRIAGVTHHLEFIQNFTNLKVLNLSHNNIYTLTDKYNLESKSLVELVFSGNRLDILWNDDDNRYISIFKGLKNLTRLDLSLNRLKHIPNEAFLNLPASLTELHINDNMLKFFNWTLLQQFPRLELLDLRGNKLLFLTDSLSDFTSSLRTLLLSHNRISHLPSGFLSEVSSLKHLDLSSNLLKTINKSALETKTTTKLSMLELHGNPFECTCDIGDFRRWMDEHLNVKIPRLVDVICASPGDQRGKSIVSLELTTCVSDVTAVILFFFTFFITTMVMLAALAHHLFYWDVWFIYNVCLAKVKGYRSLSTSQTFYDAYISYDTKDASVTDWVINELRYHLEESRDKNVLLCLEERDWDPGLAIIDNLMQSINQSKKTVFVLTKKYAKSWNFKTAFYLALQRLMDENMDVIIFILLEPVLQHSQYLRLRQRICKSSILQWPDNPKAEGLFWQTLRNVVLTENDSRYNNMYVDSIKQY
In short: (§1)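 Cells are seeded and grown for 24 h. Compounds or DMSO are then added and incubated 18 h at 37 °C. Quanti-Blue is added, and SEAP is read after thirty minutes. EC50 values are normalized, with RLU from 50 μM reference standard setting 100% Ymax.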

TLR7 = molecular target: T2, TLR7 (Homo sapiens, UniProt Q9NYK1); assay: In vitro human TLR7 binding reporter assay (HEK-Blue, NF-kB/AP1-inducible SEAP); assay type: cell-based; settings: read-out: TLR7 Agonist EC50
T2 construct: human HEK-Blue cells co-expressing a TLR7 or TLR8 gene
T2 sequence (Q9NYK1 27-1049): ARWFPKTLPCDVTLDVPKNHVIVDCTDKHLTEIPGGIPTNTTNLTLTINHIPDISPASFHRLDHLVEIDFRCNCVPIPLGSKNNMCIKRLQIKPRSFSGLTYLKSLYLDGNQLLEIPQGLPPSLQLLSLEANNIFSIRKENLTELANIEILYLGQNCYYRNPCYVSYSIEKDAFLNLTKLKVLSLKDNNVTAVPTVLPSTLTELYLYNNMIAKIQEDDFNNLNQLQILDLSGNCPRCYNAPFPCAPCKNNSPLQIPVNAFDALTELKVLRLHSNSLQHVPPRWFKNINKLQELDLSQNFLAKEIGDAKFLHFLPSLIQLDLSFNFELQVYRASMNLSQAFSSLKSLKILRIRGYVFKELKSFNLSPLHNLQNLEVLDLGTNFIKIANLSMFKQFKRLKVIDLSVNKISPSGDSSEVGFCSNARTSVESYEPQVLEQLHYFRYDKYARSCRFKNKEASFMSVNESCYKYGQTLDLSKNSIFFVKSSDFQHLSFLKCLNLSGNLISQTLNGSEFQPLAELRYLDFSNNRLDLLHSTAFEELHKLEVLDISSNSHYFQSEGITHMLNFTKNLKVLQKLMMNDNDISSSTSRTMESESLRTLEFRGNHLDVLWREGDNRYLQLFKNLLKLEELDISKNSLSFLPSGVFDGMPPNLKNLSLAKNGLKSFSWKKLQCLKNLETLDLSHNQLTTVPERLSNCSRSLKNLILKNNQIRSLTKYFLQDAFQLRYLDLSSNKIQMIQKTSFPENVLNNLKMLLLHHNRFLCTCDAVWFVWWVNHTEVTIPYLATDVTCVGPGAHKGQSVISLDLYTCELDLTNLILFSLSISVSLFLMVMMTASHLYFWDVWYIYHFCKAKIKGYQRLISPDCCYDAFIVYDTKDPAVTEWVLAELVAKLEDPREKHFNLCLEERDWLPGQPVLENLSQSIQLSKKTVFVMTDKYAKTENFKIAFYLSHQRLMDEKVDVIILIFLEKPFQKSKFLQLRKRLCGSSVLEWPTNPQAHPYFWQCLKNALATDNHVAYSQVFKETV
In short: as §1

[1] = Homo sapiens, THP-1, IL-1β production, human, read-out: NLRP3 hILIB EC50
[2] = Homo sapiens, THP-1, IL-1β production, human cells, read-out: NLRP3 hILIB EC50
[3] = IL-1β production, human, read-out: NLRP3 hILIB EC50

SMILES | EC50 (THP-1 cells; [1]) | EC50 (TLR8; activity range class) | EC50 (TLR7; activity range class) | EC50 (THP-1 cells; [2]) | EC50 (TLR8; activity range) | EC50 (TLR7; activity range) | EC50 (THP-1 cells; [3]) | EC50 (THP-1 cells; Homo sapiens, THP-1, read-out: NLRP3 hILIB EC50)
Cc1cc(Cn2cc3c(N)nc4cc(-c5cc[nH]n5)ccc4c3n2)no1 [Example 226] | 0.44 µM | > 100 µM | > 100 µM | – | – | – | – | –
CCn1cc2c(n1)c(N)nc1cc(-c3ccn[nH]3)ccc12 [Example 188] | 0.21 µM | > 100 µM | > 100 µM | – | – | – | – | –
CC(C)(C)OC(=O)NCCn1cc2c(n1)c(N)nc1cc(-c3cc[nH]n3)ccc12 [Example 118, tert-butyl N-{2-[4-amino-7-(1H-pyrazol-3-yl)-2H-pyrazolo[3,4-c]quinolin-2-yl]ethyl}carbamate] | 0.86 µM | > 100 µM | > 100 µM | – | – | – | – | –
Nc1nc2cc(-c3cc[nH]n3)ccc2c2nn(CCCN3CCOCC3)cc12 [Example 213] | 3.21 µM | > 100 µM | > 100 µM | – | – | – | – | –
COCCOCCn1cc2c(n1)c(N)nc1cc(-n3cccn3)ccc12 [Example 15] | 1.81 µM | > 100 µM | 20 to 100 µM | – | – | – | – | –
Nc1nc2cc(-c3cc[nH]n3)ccc2c2nn(CC(F)F)cc12 [Example 224] | 0.14 µM | > 100 µM | > 100 µM | – | – | – | – | –
COC(=O)NCc1nc2c(N)nc3cc(-c4ccn[nH]4)ccc3c2s1 [Example 134, methyl N-[[4-amino-7-(1H-pyrazol-5-yl)-[1,3]thiazolo[4,5-c]quinolin-2-yl]methyl]carbamate] | 0.37 µM | > 100 µM | 20 to 100 µM | – | – | – | – | –
COc1cccc(C(=O)NCCn2cc3c(n2)c(N)nc2cc(-c4cc[nH]n4)ccc23)n1 [Example 65] | 0.35 µM | 20 to 100 µM | > 100 µM | – | – | – | – | –
Nc1nc2cc(-c3cc[nH]n3)ccc2c2cn(CCNC(=O)c3ncccc3Cl)nc12 [Example 92] | 1.07 µM | > 100 µM | > 100 µM | – | – | – | – | –
CN(C)C(=O)NCCn1cc2c(n1)c(N)nc1cc(-c3cc[nH]n3)ccc12 [Example 116, 1-{2-[4-amino-7-(1H-pyrazol-3-yl)-2H-pyrazolo[3,4-c]quinolin-2-yl]ethyl}-3,3-dimethylurea] | – | > 100 µM | > 100 µM | – | – | – | – | 7.43 µM
CCNC(=O)Cn1cc2c(n1)c(N)nc1cc(-n3cccn3)ccc12 [Example 19] | 3.88 µM | 20 to 100 µM | 20 to 100 µM | – | – | – | – | –
CS(=O)(=O)CCn1cc2c(n1)c(N)nc1cc(-c3cc[nH]n3)ccc12 [Example 170] | 1.98 µM | > 100 µM | > 100 µM | – | – | – | – | –
Nc1nc2cc(-c3cc[nH]n3)ccc2c2nn(CCN3Cc4ccc(F)cc4C3=O)cc12 [Example 205, 2-(2-(4-amino-7-(1H-pyrazol-3-yl)-2H-pyrazolo[4,3-c]quinolin-2-yl)ethyl)-6-fluoroisoindolin-1-one] | 2.04 µM | > 100 µM | > 100 µM | – | – | – | – | –
Nc1nc2cc(-c3ccn[nH]3)ccc2c2sc(CCNC(=O)c3ccccn3)nc12 [Example 136, N-[2-[4-amino-7-(1H-pyrazol-5-yl)-[1,3]thiazolo[4,5-c]quinolin-2-yl]ethyl]pyridine-2-carboxamide] | 0.16 µM | > 100 µM | 20 to 100 µM | – | – | – | – | –

Now from value to molecule, other results behind:

EC50 (THP-1 cells; [1]) | EC50 (TLR8; activity range class) | EC50 (TLR7; activity range class) | EC50 (THP-1 cells; [2]) | EC50 (TLR8; activity range) | EC50 (TLR7; activity range) | EC50 (THP-1 cells; [3]) | SMILES | EC50 (THP-1 cells; Homo sapiens, THP-1, read-out: NLRP3 hILIB EC50)
4.32 µM | > 100 µM | > 100 µM | – | – | – | – | CCOCC(=O)NC(C)Cn1cc2c(N)nc3cc(-c4ccn[nH]4)ccc3c2n1 (stereo not drawn) [Example 298] | –
– | – | – | 3.65 µM | > 100 µM | > 100 µM | – | Nc1nc2cc(-c3cc[nH]n3)ccc2c2[nH]c(CNC(=O)c3ccc(F)cn3)cc12 [Example 418] | –
– | – | – | 0.19 µM | > 100 µM | > 100 µM | – | Nc1nc2cc(-c3ccn[nH]3)ccc2c2[nH]c(CCO)cc12 [Example 442] | –
1.4 µM | > 100 µM | > 100 µM | – | – | – | – | CC(Cn1cc2c(N)nc3cc(-c4ccn[nH]4)ccc3c2n1)NS(C)(=O)=O (stereo not drawn) [Example 301] | –
– | – | – | 4.41 µM | > 100 µM | > 100 µM | – | CC(C(=O)NCCCO)n1cc2c(N)nc3cc(-c4ccn[nH]4)ccc3c2n1 (stereo not drawn) [Example 572] | –
– | – | – | 14.5 µM | > 100 µM | > 100 µM | – | CC(CC(=O)NCC(F)F)n1cc2c(N)nc3cc(-c4cc[nH]n4)ccc3c2n1 (stereo not drawn) [Example 618] | –
– | – | – | 2.32 µM | > 100 µM | > 100 µM | – | CC(C(=O)N1CC(F)(F)C1)n1cc2c(N)nc3cc(-c4ccn[nH]4)ccc3c2n1 (stereo not drawn) [Example 577] | –
– | – | – | 0.74 µM | > 100 µM | > 100 µM | – | Nc1nc2cc(-c3cc[nH]n3)c(F)cc2c2nn(CCO)cc12 [Example 404] | –
0.19 µM | > 100 µM | > 100 µM | – | – | – | – | Nc1nc2cc(-c3cc[nH]n3)ccc2c2nn(Cc3cc[nH]n3)cc12 [Example 357] | –
– | – | – | 0.4 µM | > 100 µM | > 100 µM | – | NC(=O)C1(Cn2cc3c(n2)c(N)nc2cc(-c4cc[nH]n4)ccc23)CC1 [Example 527] | –
– | > 100 µM | > 100 µM | – | – | – | 0.34 µM | Nc1nc2cc(-c3cc[nH]n3)ccc2c2nn(C3CCC(O)C3)cc12 (single isomer, unassigned) [Example 342] | –
0.62 µM | > 100 µM | > 100 µM | – | – | – | – | Nc1nc2cc(-c3cc[nH]n3)ccc2c2nn(CCC(F)(F)F)cc12 [Example 348] | –
– | – | – | 3.19 µM | > 100 µM | > 100 µM | – | CC(C)(O)Cn1ncc2c(N)nc3cc(-c4cc[nH]n4)ccc3c21 [Example 432] | –
– | > 100 µM | > 100 µM | – | – | – | 1.13 µM | Nc1nc2cc(-c3cc[nH]n3)ccc2c2nn(C3CCCCC3O)cc12 (single isomer, unassigned) [Example 319] | –
0.08 µM | > 100 µM | > 100 µM | – | – | – | – | Nc1nc2cc(-c3cc[nH]n3)ccc2c2nn(CC3CCCO3)cc12 (stereo not drawn) [Example 229] | –
– | – | – | 1.62 µM | > 100 µM | > 100 µM | – | Cc1c(CN2CCOCC2)[nH]c2c1c(N)nc1cc(-c3cc[nH]n3)ccc12 [Example 468] | –
– | – | – | 1.79 µM | > 100 µM | > 100 µM | – | Nc1nc2cc(-c3cc[nH]n3)ccc2c2cn(CC(=O)N3CC(F)(F)C3)nc12 [Example 545] | –
– | – | – | 2.03 µM | > 100 µM | > 100 µM | – | Nc1nc2cc(-c3cc[nH]n3)ccc2c2cn(CC(=O)N3CC(F)C3)nc12 [Example 543] | –
